Test: molar heat capacity at constant pressure
Details: 101.33 kPa

OC[C@@H](O)[C@@H](O)CO [meso-1,2,3,4-butanetetrol]
molar heat capacity at constant pressure [J/K/mol]
Details	Small sample (50 mg) DSC	relaxation calorimetry
264.15 K, Crystal	146.16	–
265.15 K, Crystal	146.7	–
266.15 K, Crystal	147.21	–
267.15 K, Crystal	147.61	–
268.15 K, Crystal	148.1	–
269.15 K, Crystal	148.57	–
270 K, Crystal	–	150.4
270.15 K, Crystal	149.15	–
271.15 K, Crystal	149.59	–
272.15 K, Crystal	150.19	–
272.18 K, Crystal	–	151.4
273.15 K, Crystal	150.91	152
274.15 K, Crystal	151.33	–
275.15 K, Crystal	151.84	–
276.15 K, Crystal	152.44	–
277.15 K, Crystal	152.94	–
278.15 K, Crystal	153.58	–
279.15 K, Crystal	154.21	–
280 K, Crystal	–	155.49
280.15 K, Crystal	154.62	–
281.15 K, Crystal	155.17	–
282.15 K, Crystal	155.77	–
282.18 K, Crystal	–	157.05
283.15 K, Crystal	156.24	–
284.15 K, Crystal	156.55	–
285.15 K, Crystal	157.21	–
286.15 K, Crystal	157.62	–
287.15 K, Crystal	158.1	–
288.15 K, Crystal	158.65	–
289.15 K, Crystal	159.25	–
290 K, Crystal	–	160.61
290.15 K, Crystal	159.93	–
291.15 K, Crystal	160.48	–
292.15 K, Crystal	161.05	–
292.3 K, Crystal	–	161.64
293.15 K, Crystal	161.72	–
294.15 K, Crystal	162.21	–
295.15 K, Crystal	162.81	–
296.15 K, Crystal	163.64	–
297.15 K, Crystal	164.09	–
298.15 K, Crystal	164.59	164.8
299.15 K, Crystal	165.2	–
300 K, Crystal	–	165.76
300.15 K, Crystal	165.82	–
301.15 K, Crystal	166.37	–
302.15 K, Crystal	166.97	–
302.36 K, Crystal	–	167.01
303.15 K, Crystal	167.71	–
304.15 K, Crystal	168.28	–
305 K, Crystal	169.01	–
305.15 K, Crystal	169.01	–
306.15 K, Crystal	169.71	–
307.15 K, Crystal	170.39	–
308.15 K, Crystal	171.17	–
309.15 K, Crystal	171.87	–
310 K, Crystal	172.33	–
310.15 K, Crystal	172.47	–
311.15 K, Crystal	173.14	–
312.15 K, Crystal	173.77	–
313.15 K, Crystal	174.6	–
314.15 K, Crystal	175.09	–
315 K, Crystal	175.5	–
315.15 K, Crystal	175.58	–
316.15 K, Crystal	176.2	–
317.15 K, Crystal	176.88	–
318.15 K, Crystal	177.32	–
319.15 K, Crystal	177.89	–
320 K, Crystal	178.54	–
320.15 K, Crystal	178.54	–
321.15 K, Crystal	179.14	–
322.15 K, Crystal	179.7	–
323.15 K, Crystal	180.24	–
324.15 K, Crystal	180.85	–
325 K, Crystal	181.48	–
325.15 K, Crystal	181.48	–
326.15 K, Crystal	181.97	–
327.15 K, Crystal	182.72	–
328.15 K, Crystal	183.34	–
329.15 K, Crystal	183.85	–
330 K, Crystal	184.34	–
330.15 K, Crystal	184.59	–
331.15 K, Crystal	185.18	–
332.15 K, Crystal	185.74	–
333.15 K, Crystal	186.31	–
334.15 K, Crystal	186.85	–
335 K, Crystal	187.15	–
335.15 K, Crystal	187.33	–
336.15 K, Crystal	187.85	–
337.15 K, Crystal	188.31	–
338.15 K, Crystal	188.9	–
339.15 K, Crystal	189.49	–
340 K, Crystal	189.91	–
340.15 K, Crystal	189.94	–
341.15 K, Crystal	190.43	–
342.15 K, Crystal	191.01	–
343.15 K, Crystal	191.56	–
344.15 K, Crystal	192.16	–
345 K, Crystal	192.66	–
345.15 K, Crystal	192.67	–
346.15 K, Crystal	193.32	–
347.15 K, Crystal	193.86	–
348.15 K, Crystal	194.17	–
349.15 K, Crystal	194.83	–
350 K, Crystal	195.43	–
350.15 K, Crystal	195.3	–
351.15 K, Crystal	195.72	–
352.15 K, Crystal	196.34	–
353.15 K, Crystal	197.73	–
354.15 K, Crystal	198.08	–
355 K, Crystal	198.22	–
355.15 K, Crystal	198.55	–
356.15 K, Crystal	199.02	–
357.15 K, Crystal	199.53	–
358.15 K, Crystal	200.16	–
359.15 K, Crystal	200.7	–
360 K, Crystal	201.07	–
360.15 K, Crystal	201.23	–
361.15 K, Crystal	201.82	–
362.15 K, Crystal	202.33	–
363.15 K, Crystal	202.72	–
364.15 K, Crystal	203.4	–
365 K, Crystal	203.99	–
365.15 K, Crystal	203.96	–
366.15 K, Crystal	204.56	–
367.15 K, Crystal	205.27	–
368.15 K, Crystal	205.84	–
369.15 K, Crystal	206.45	–
370 K, Crystal	207.02	–
370.15 K, Crystal	207.1	–
371.15 K, Crystal	207.59	–
372.15 K, Crystal	208.24	–
373.15 K, Crystal	208.9	–
374.15 K, Crystal	209.47	–
375 K, Crystal	210.16	–
375.15 K, Crystal	210.03	–
412.05 K, Liquid	355.49	–
412.15 K, Liquid	355.53	–
412.25 K, Liquid	355.65	–
412.35 K, Liquid	355.53	–
412.45 K, Liquid	355.34	–
412.55 K, Liquid	355.36	–
412.65 K, Liquid	355.43	–
412.75 K, Liquid	355.39	–
412.85 K, Liquid	355.48	–
412.95 K, Liquid	355.36	–
413.05 K, Liquid	355.34	–
413.15 K, Liquid	355.22	–
414.15 K, Liquid	354.92	–
415 K, Liquid	354.91	–
415.15 K, Liquid	354.76	–
416.15 K, Liquid	354.79	–
417.15 K, Liquid	354.7	–
418.15 K, Liquid	354.67	–
419.15 K, Liquid	354.7	–
420 K, Liquid	354.96	–
420.15 K, Liquid	354.81	–
421.15 K, Liquid	354.98	–
422.15 K, Liquid	354.99	–
423.15 K, Liquid	354.99	–
424.15 K, Liquid	354.94	–
425 K, Liquid	355.01	–
425.15 K, Liquid	354.94	–
426.15 K, Liquid	354.95	–
427.15 K, Liquid	355.23	–
428.15 K, Liquid	355.21	–
429.15 K, Liquid	355.15	–
430 K, Liquid	355.06	–
430.15 K, Liquid	355.18	–
431.15 K, Liquid	355.17	–
432.15 K, Liquid	355.17	–
433.15 K, Liquid	355	–
434.15 K, Liquid	354.85	–
435 K, Liquid	355.11	–
435.15 K, Liquid	355.19	–
